Consider one molecule from patent US20060204980A1, “Colorectal cancer therapies” (priority 2004, published 2006).

The subject of experiment [1] is p53^−/− HCT116 colorectal carcinoma cells. The experiment can be described thus: Western blotting of p53 pathway proteins in treated p53-/- HCT116 cells. The class given is cell-based. How it is done:
(§1) Cells were collected and centrifuged at 3,000 rpm for 5 minutes at 4° C., and washed in PBS (pH 7.2). The cell pellet was solubilized in lysis buffer (20 mM Tris, pH 7.2, 0.5% deoxycholate, 1% Triton X-100, 0.1% SDS, 150 mM NaCl, 1 mM EDTA) containing proteases inhibitors (Complete, Roche Applied Science) for 30 min at 4° C. The lysate was cleared by centrifugation for 15 minutes, and protein concentration was evaluated using a Bio-Rad protein assay system (Bio-Rad Laboratories, Hercules, Calif.). Samples (30 μg) were separated by SDS-polyacrylamide gel, transferred to nylon membranes (Millipore), and incubated with primary antibodies to p53 (Oncogene Research Products, FL-393, Santa Cruz Biotechnology, Inc., Santa Cruz, Calif.), p21^Waf1/Cip1 (Oncogene Research Products), XIAP (BD Transduction Laboratories), survivin (NOVUS Biologicals, Littleton, Colo.), MDM2 (Santa Cruz Biotechnology, Inc.), p14^ARF (NOVUS Biologicals), caspase-3 (Cell Signaling Technology), cleaved caspase-3 (Cell Signaling Technology), β-catenin (BD Transduction Laboratories), cyclin B1 (GNS1, Santa Cruz Biotechnology, Inc.), GSK3β (Santa Cruz Biotechnology, Inc.), or β-sactin (Sigma) with detection of reactive bands by chemiluminescence (Amersham). Cells were analyzed for hypodiploid DNA content by propidium iodide staining and flow cytometry as described in O'Connor et al., Cancer Cell, 2:43-54 (2002). Chemicals whose source is not explicitly listed were or can be obtained from Sigma.
To explore the link between GSK3β inhibition and p53 modulation, in vivo, HCT116 cells were treated with Li, TDZD or SB216763, and analyzed cells by Western blotting. p53^+/+ or p53^−/− HCT116 cells were incubated with the following GSK3β inhibitors, LiCl (Sigma, 30 mM), thiadiazolidinone-8 (TDZD) (Calbiochem, 0-20 μM), or SB216763 (Sigma, 20 μM), cells were harvested after 6-24 hours, and samples were analyzed by Western blotting as described in Example 2.
For orientation: A western blot detects proteins with antibodies after separation by electrophoresis.

The target of a further experiment is Cdk2 (Homo sapiens, UniProt P24941). The note with it: in vivo, Knockaert et al.; cited from earlier work.
In another experiment the target is GSK3β (Homo sapiens, UniProt P49841). The note with it: battery of kinase substrates, Bain et al.; cited from earlier work.
Chain of GSK3β (P49841 whole entry): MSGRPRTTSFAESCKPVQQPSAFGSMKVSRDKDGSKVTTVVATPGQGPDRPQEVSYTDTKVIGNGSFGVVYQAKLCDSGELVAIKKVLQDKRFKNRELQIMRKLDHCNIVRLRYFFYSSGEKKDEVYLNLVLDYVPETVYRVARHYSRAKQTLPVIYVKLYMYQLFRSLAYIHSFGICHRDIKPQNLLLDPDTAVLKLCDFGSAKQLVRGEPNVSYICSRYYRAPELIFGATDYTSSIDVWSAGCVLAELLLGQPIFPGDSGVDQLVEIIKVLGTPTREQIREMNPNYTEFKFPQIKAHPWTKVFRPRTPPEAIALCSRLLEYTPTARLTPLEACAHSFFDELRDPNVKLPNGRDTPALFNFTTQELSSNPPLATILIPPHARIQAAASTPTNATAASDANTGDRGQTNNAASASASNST
In another experiment the test system is p53^+/+ HCT116 cells. The experiment can be described thus: Hypodiploid DNA content by propidium iodide staining and flow cytometry, p53+/+ HCT116. The format is cell-based. The note with it: 0-20 μM, 48 hours. How it is done: Cells were collected and centrifuged at 3,000 rpm for 5 minutes at 4° C., and washed in PBS (pH 7.2). The cell pellet was solubilized in lysis buffer (20 mM Tris, pH 7.2, 0.5% deoxycholate, 1% Triton X-100, 0.1% SDS, 150 mM NaCl, 1 mM EDTA) containing proteases inhibitors (Complete, Roche Applied Science) for 30 min at 4° C. The lysate was cleared by centrifugation for 15 minutes, and protein concentration was evaluated using a Bio-Rad protein assay system (Bio-Rad Laboratories, Hercules, Calif.). […] Cells were analyzed for hypodiploid DNA content by propidium iodide staining and flow cytometry as described in O'Connor et al., Cancer Cell, 2:43-54 (2002). […]
The functional consequences of GSK3β inhibition were explored. […] Alternatively, cells were incubated with GSK3β inhibitors LiCl (30 mM) or TDZD (20 μM), harvested after 48 hours and analyzed for cell viability (propidium iodide, red channel) and active caspase-3/7 activity (green channel, […]®, from Chemicon International Inc., Temecula, Calif.), by multiparametric flow cytometry as reported previously in Kim et al., Lancet, 362:205-209 (2003).

The test system of the next experiment is p53^−/− HCT116 cells. The experiment can be described thus: Hypodiploid DNA content by propidium iodide staining and flow cytometry, p53-/- HCT116. The format is cell-based. Here is the method:
as §1
The functional consequences of GSK3β inhibition were explored. Source and maintenance of p53^+/+ and p53^−/− HCT116 colorectal carcinoma cells were as described in Example 2. […] Alternatively, cells were incubated with GSK3β inhibitors LiCl (30 mM) or TDZD (20 μM), harvested after 48 hours and analyzed for cell viability (propidium iodide, red channel) and active caspase-3/7 activity (green channel, […]®, from Chemicon International Inc., Temecula, Calif.), by multiparametric flow cytometry as reported previously in Kim et al., Lancet, 362:205-209 (2003). […]

Take `CC(C)[C@H](CO)Nc1nc(Nc2cccc(Cl)c2)c2ncn(C(C)C)c2n1` [Purvalanol A]: in experiment [1], the “p53-reactive material (Western blot)” value is “did not modulate the expression of p53-reactive material” and the “survivin expression (Western blot)” value is recorded as “no significant changes in survivin levels”. Also, the “suppression of Cdk2” value at Cdk2 is given as “equally effective”. On GSK3β, the “activity against GSK3β in vitro” value is recorded as “not active against GSK3β”. Moreover, in the experiment with p53^+/+ HCT116 cells, the “apoptosis (hypodiploid DNA content)” value is “concentration-dependent induction of apoptosis”. Moreover, in the experiment with p53^−/− HCT116 cells (0-20 μM, 48 hours), the “apoptosis / cell death (hypodiploid DNA content)” value is “largely resistant to Purvalanol A-induced cell death” and the “cell cycle effect (DNA content)” value is reported as “sustained G2/M arrest”. Further, the “enhancement of cell death in survivin-ablated (S4) vs VIII transfectants treated with Purvalanol A” value with p53^−/− HCT116 cells (survivin RNAi (S4), Purvalanol A 5 μM, 24 hour) was 2.5 fold.
